From patent US20150031068A1, “METHODS AND COMPOSITIONS FOR DETECTING IMMUNE SYSTEM ACTIVATION” (Lycera Corporation, priority 2012, published 2015)

Tests used:
[1] = Plasma metabolite profile after ^13C-glutamine tracer load in mouse model of acute graft-versus-host disease; type: in vivo; conditions: for circulating total glutamine concentration in plasma, change: grafted host (allo-transplanted) mice compared to control donor and control host mice
Method: To investigate metabolic adaptations that occur in response to allo-activation, host strain animals (female B6D2F1 mice, H-2b/d) were injected with 50-75 million spleen cells from donor strain animals (female B6.SJL mice, H-2b). […] Eight days after injection, transplanted mice along with control non-transplanted animals from the host and donor strains received with U-^13C(6)-glutamine (Sigma#60516, 1.0 g/kg I.P.) or U-^13C(5)-glucose (Sigma#660663, 1.0 g/kg I.P.) or potassium U-^13C(16)-palmitate (Sigma#687871, 1.0 g/kg, gastric gavage). Treatment groups of four mice each were euthanized 60 minutes after the glutamine or glucose tracer loads or 180 minutes after palmitate tracer load by over exposure to carbon dioxide. Terminal blood samples were collected by cardiac puncture, plasma prepared after blood was mixed with heparin and frozen at −80° C. Spleens were removed and processed to isolate T cells as separate fractions derived from either the donor or host strains of mice. Samples were stored on dry ice overnight and then stored at −80° C. until analyzed using GC/MS-based mass isotopomer analysis.

T cells [2] = assay: ^13C delta in CO2 in spleen T cells after ^13C-palmitate tracer load, acute graft-versus-host disease model; type: in vivo, mouse
Method: To investigate metabolic adaptations that occur in response to allo-activation, host strain animals (female B6D2F1 mice, H-2b/d) were injected with 50-75 million spleen cells from donor strain animals (female B6.SJL mice, H-2b). The miss-match between the strains major histocompatibility antigens (e.g., H-2b/d versus H-2b) causes T cell activation of donor T cells in vivo and results in a mouse model of acute graft versus host disease. Eight days after injection, transplanted mice along with control non-transplanted animals from the host and donor strains received with U-^13C(6)-glutamine (Sigma#60516, 1.0 g/kg I.P.) or U-^13C(5)-glucose (Sigma#660663, 1.0 g/kg I.P.) or potassium U-^13C(16)-palmitate (Sigma#687871, 1.0 g/kg, gastric gavage). Treatment groups of four mice each were euthanized 60 minutes after the glutamine or glucose tracer loads or 180 minutes after palmitate tracer load by over exposure to carbon dioxide. Terminal blood samples were collected by cardiac puncture, plasma prepared after blood was mixed with heparin and frozen at −80° C. Spleens were removed and processed to isolate T cells as separate fractions derived from either the donor or host strains of mice. Samples were stored on dry ice overnight and then stored at −80° C. until analyzed using GC/MS-based mass isotopomer analysis.

T cells [3] = assay: Molar percent enrichment of [4,5-^13C2]-L-glutamate in spleen T cells after ^13C-palmitate tracer load; type: in vivo, mouse
Excerpt: The molar percent enrichment of [4,5-^13C2]-L-glutamate is the amount of [4,5-^13C2]-L-glutamate in a sample divided by the total amount of all ^13C-labeled glutamate isotopomers in the sample.

Row | circulating total glutamine concentration in plasma, change [1] | circulating total glutamine concentration in plasma, change ([1]; listed as glutamine) | share of ^13C-labeled glutamine fraction still uniformly ^13C-labeled ([1]; grafted host animals, plasma, one hour after glutamine tracer load) [%] | ^13C delta in CO2 (T cells [2]; allo-activated donor type T cells versus control naive donor type T cells, FIG. 4B) | ^13C delta in CO2 (T cells [2]; host T cells from allo-transplanted mouse versus host-type T cells from healthy host control, FIG. 5B) | molar percent enrichment of [4,5-^13C2]-L-glutamate (T cells [3]; allo-activated donor T cells versus control naive T cells, FIG. 6) | molar percent enrichment of [4,5-^13C2]-L-glutamate (T cells [3]; host T cells from allo-transplanted mouse versus T cells from healthy host control, FIG. 7) | SMILES
1 | more than two-fold drop | reduction | 83.4 | – | – | – | – | NC(=O)CCC(N)C(=O)O [[U-^13C5]-L-glutamine]
2 | – | – | – | higher | no statistically significant difference | over six times greater | no statistically significant difference | [13CH3][13CH2][13CH2][13CH2][13CH2][13CH2][13CH2][13CH2][13CH2][13CH2][13CH2][13CH2][13CH2][13CH2][13CH2][13C](=O)[O-].[K+] [uniformly labeled ^13C-palmitate, potassium U-^13C(16)-palmitate]
